The values below come from patent US9290516B2, “Benzobis(thiadiazole) derivative and organic electronics device comprising same” (Ube Industries, Ltd., priority 2012, dated 2016).

Format in all cases: physicochemical
Series [1] can be described thus: Solubility Experiment 3 (chlorobenzene, visual observation). The following applies: organic solvent or mixture, thermodynamic from solid, 1 mg in 1 mL chlorobenzene. As to the method:
1 mg of each compound shown in Table 1 [BBT-(1)-BBT-(14)] was added to 1 mL of a solvent (chlorobenzene) and the mixture was heated to 100° C. or 140° C., and the solubility was evaluated by visual observation.

Series [2] in a line: Solubility Experiment 1 (1,2-dichlorobenzene). The following applies: 5 mg in 1.6 g 1,2-dichlorobenzene, heated to 150° C. As to the method:
Into a 20-ml glass vessel equipped with a stirring apparatus were placed 5 mg of BBT-(1), and 1.6 g of 1,2-dichlorobenzene.
(§1) On the other hand, using BBT-(11): (FPTBBT) synthesized in Reference Example 1, instead of BBT-(1), the preparation of a solution of BBT-(11) in 1,2-dichlorobenzene was attempted in accordance with [Solubility Experiment 1]. […] The suspension was filtered through a 0.2-μm filter, and then dropped onto a silicon wafer as described above. And then, without any treatment, the solvent component was volatilized, but the formation of a thin film of BBT-(11) was not confirmed. Meanwhile, using BBT-(11), instead of BBT-(1), the preparation of a solution of BBT-(11) in mesitylene was attempted in accordance with [Solubility Experiment 2]. […] The suspension was filtered through a 0.2-μm filter, and then dropped onto a silicon wafer as described above. And then, without any treatment, the solvent component was volatilized, but the formation of a thin film of BBT-(11) was not confirmed.

Series [3] in a line: Solubility Experiment 2 (mesitylene). Particulars: 5 mg in 1.6 g mesitylene, heated to 100° C. As to the method: Into a 20-ml glass vessel equipped with a stirring apparatus were placed 5 mg of BBT-(1), and 1.6 g of mesitylene.
as §1

[4] abbreviates: heated to 100° C., read-out: Solubility chlorobenzene (° C.) 100.
Setting [5] is: heated to 140° C., read-out: Solubility chlorobenzene (° C.) 140.

Read-outs that look alike come from different tables or passages of the source.

As to `FC(F)(F)Oc1ccc(-c2ccc(-c3c4c(c(-c5ccc(-c6ccc(OC(F)(F)F)cc6)s5)c5nsnc35)N=S=N4)s2)cc1` [BBT-(1)], the solubility in series [1] (setting [4]) and in series [1] (setting [5]) was more than 1000 µg/mL throughout. In addition, the “Solubility in 1,2-dichlorobenzene” value in series [2] is listed as “completely dissolved”. For the same compound, the Solubility in mesitylene result in series [3] is “completely dissolved”.

Regarding `FC(F)(F)Oc1cccc(-c2ccc(-c3c4c(c(-c5ccc(-c6cccc(OC(F)(F)F)c6)s5)c5nsnc35)N=S=N4)s2)c1` [BBT-(2)], the solubility in series [1] (setting [4]) and in series [1] (setting [5]) was more than 1000 µg/mL throughout.

`FC(F)(F)Oc1ccccc1-c1ccc(-c2c3c(c(-c4ccc(-c5ccccc5OC(F)(F)F)s4)c4nsnc24)N=S=N3)s1` [BBT-(3)]: the solubility in series [1] (setting [4]) and in series [1] (setting [5]) was more than 1000 µg/mL each time.

As to `CC(F)(F)c1ccc(-c2ccc(-c3c4c(c(-c5ccc(-c6ccc(C(C)(F)F)cc6)s5)c5nsnc35)N=S=N4)s2)cc1` [BBT-(4)], the solubility in series [1] (setting [4]) was less than 1000 µg/mL; in series [1] (setting [5]), more than 1000 µg/mL.

Turning to `CCCCCCCCCCC(F)(F)c1ccc(-c2ccc(-c3c4c(c(-c5ccc(-c6ccc(C(F)(F)CCCCCCCCCC)cc6)s5)c5nsnc35)N=S=N4)s2)cc1` [BBT-(5)], the solubility in series [1] (setting [4]) and in series [1] (setting [5]) was more than 1000 µg/mL throughout.

Regarding `CC(F)(F)Oc1ccc(-c2ccc(-c3c4c(c(-c5ccc(-c6ccc(OC(C)(F)F)cc6)s5)c5nsnc35)N=S=N4)s2)cc1` [BBT-(6)], the figures for the solubility in series [1] (setting [4]) and in series [1] (setting [5]) were less than 1000 µg/mL and more than 1000 µg/mL, respectively.

For the compound `CCCCCCCCCC(F)(F)Oc1ccc(-c2ccc(-c3c4c(c(-c5ccc(-c6ccc(OC(F)(F)CCCCCCCCC)cc6)s5)c5nsnc35)N=S=N4)s2)cc1` [BBT-(7)], the solubility in series [1] (setting [4]) and in series [1] (setting [5]) was more than 1000 µg/mL in each case.

In the case of `CC(C)CC(F)c1ccc(-c2ccc(-c3c4c(c(-c5ccc(-c6ccc(C(F)CC(C)C)cc6)s5)c5nsnc35)N=S=N4)s2)cc1` (stereo not drawn) [BBT-(9)], the figures for the solubility in series [1] (setting [4]) and in series [1] (setting [5]) were less than 1000 µg/mL and more than 1000 µg/mL, respectively.

Consider `CCCCCCCCCCOC(F)(F)c1ccc(-c2ccc(-c3c4c(c(-c5ccc(-c6ccc(C(F)(F)OCCCCCCCCCC)cc6)s5)c5nsnc35)N=S=N4)s2)cc1` [BBT-(10)], for which the solubility in series [1] (setting [4]) and in series [1] (setting [5]) was more than 1000 µg/mL in each case.

Turning to `FC(F)(F)c1ccc(-c2ccc(-c3c4c(c(-c5ccc(-c6ccc(C(F)(F)F)cc6)s5)c5nsnc35)N=S=N4)s2)cc1` [BBT-(11), reference compound], the solubility in series [1] (setting [4]) and in series [1] (setting [5]) was less than 1000 µg/mL throughout. Further, the “Solubility in 1,2-dichlorobenzene” value in series [2] is reported as “not completely dissolved”. Besides, the Solubility in mesitylene result in series [3] was “not completely dissolved”.

In the case of `Cc1ccc(-c2ccc(-c3c4c(c(-c5ccc(-c6ccc(C)cc6)s5)c5nsnc35)N=S=N4)s2)cc1` [BBT-(12), reference compound], the solubility in series [1] (setting [4]) and in series [1] (setting [5]) was more than 1000 µg/mL each time.

Take `COc1ccc(-c2ccc(-c3c4c(c(-c5ccc(-c6ccc(OC)cc6)s5)c5nsnc35)N=S=N4)s2)cc1` [BBT-(13), reference compound]: the results for the solubility in series [1] (setting [4]) and in series [1] (setting [5]) were less than 1000 µg/mL and more than 1000 µg/mL, respectively.

Regarding `CCCCCCCCCc1ccc(-c2ccc(-c3c4c(c(-c5ccc(-c6ccc(CCCCCCCCC)cc6)s5)c5nsnc35)N=S=N4)s2)cc1` [BBT-(14), reference compound], the solubility in series [1] (setting [4]) and in series [1] (setting [5]) was more than 1000 µg/mL throughout.

By solubility is commonly meant the dissolved amount per volume that the medium holds.
